Test results from patent US9771369B2, “Compounds and methods for kinase modulation, and indications therefor” (Plexxikon Inc., priority 2014, dated 2017).

Columns and labels:
[1] = biological target: c-Kit kinase (Homo sapiens (Human), UniProt P10721); assay: c-Kit biochemical assay (AlphaScreen kinase activity)
Procedure, shortened: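 IC50 values come from 8-point, 1:3 compound titrations measuring inhibition of peptide phosphorylation by c-Kit (commercial or His-tagged E. coli-expressed) over 1 h at room temperature, read by AlphaScreen PY30/streptavidin beads. Low-ATP version: 10 μM ATP, 100 nM biotin-(E4Y)3; high-ATP version: 100 μM ATP, 30 nM biotin-(E4Y)10.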

[2] = tested on: BaF3-FL KIT D816V or BaF3-FL KIT V560G/D816V cell line; assay: Cell-based assays of c-Kit mutant kinase activity (cell proliferation, ATPlite); conditions: at least one of the c-kit cell assays of Example 7
Procedure, shortened: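 BaF3 cells dependent on transfected full-length human KIT D816V or V560G/D816V (pCI-Neo, CMV promoter) were seeded at 1×10^4 cells/well and exposed to 8-point 1:3 dilutions from 10 μM top (0.2% DMSO) for three days at 37° C. ATPlite luminescence gave cell number; IC50 from concentration-response.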

Sequence of c-Kit kinase (P10721 26-976): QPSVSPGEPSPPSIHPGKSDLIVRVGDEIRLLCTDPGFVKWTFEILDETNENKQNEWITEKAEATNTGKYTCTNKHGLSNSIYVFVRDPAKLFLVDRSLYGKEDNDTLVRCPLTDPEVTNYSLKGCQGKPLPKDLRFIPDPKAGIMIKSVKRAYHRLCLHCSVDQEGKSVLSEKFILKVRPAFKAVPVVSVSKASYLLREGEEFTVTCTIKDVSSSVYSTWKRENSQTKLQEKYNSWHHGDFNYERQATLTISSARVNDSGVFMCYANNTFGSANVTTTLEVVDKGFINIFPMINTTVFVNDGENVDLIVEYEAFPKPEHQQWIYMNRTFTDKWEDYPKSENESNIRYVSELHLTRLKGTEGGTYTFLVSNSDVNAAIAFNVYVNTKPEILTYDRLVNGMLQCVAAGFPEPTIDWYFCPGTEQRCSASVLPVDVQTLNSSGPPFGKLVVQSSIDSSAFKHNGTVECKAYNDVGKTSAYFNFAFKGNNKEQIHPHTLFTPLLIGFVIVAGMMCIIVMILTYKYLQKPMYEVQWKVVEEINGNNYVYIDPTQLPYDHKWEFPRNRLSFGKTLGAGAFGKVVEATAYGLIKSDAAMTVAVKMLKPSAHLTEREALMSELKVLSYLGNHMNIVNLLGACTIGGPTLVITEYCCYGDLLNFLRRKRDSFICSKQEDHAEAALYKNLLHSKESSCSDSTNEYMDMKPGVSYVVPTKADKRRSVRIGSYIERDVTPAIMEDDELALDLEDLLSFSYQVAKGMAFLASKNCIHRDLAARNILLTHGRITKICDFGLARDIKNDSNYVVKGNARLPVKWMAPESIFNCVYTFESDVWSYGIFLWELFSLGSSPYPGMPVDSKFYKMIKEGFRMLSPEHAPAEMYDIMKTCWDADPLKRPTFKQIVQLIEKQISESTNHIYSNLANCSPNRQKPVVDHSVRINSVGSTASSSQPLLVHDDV

| SMILES | IC50 [1] | IC50 [2] |
| --- | --- | --- |
| CCOc1ccc(-c2[nH]c(C3(C)CCN(c4ncnc5[nH]c(-c6ccc(OC)nc6)cc45)CC3)nc2C)cc1 [P-3171, 4-[4-[5-(4-ethoxyphenyl)-4-methyl-1H-imidazol-2-yl]-4-methyl-1-piperidyl]-6-(6-methoxy-3-pyridyl)-7H-pyrrolo[2,3-d]pyrimidine] | 0.0001 to 1 µM | < 10000 nM |
| CNC(=O)c1ccc(-c2cc3c(N4CCC(C)(c5nc(C)c(-c6ccc(OC(F)F)cc6)[nH]5)CC4)ncnc3[nH]2)cn1 [P-3246, 5-[4-[4-[5-[4-(difluoromethoxy)phenyl]-4-methyl-1H-imidazol-2-yl]-4-methyl-1-piperidyl]-7H-pyrrolo[2,3-d]pyrimidin-6-yl]-N-methyl-pyridine-2-carb oxamide] | 0.0001 to 1 µM | < 10000 nM |
| Cc1nc(C2(C)CCN(c3ncnc4[nH]c(-c5cnn(C(F)F)c5)cc34)CC2)[nH]c1-c1ccc(Cl)cc1 [P-3175, 4-[4-[5-(4-chlorophenyl)-4-methyl-1H-imidazol-2-yl]-4-methyl-1-piperidyl]-6-[1-(difluoromethyl)pyrazol-4-yl]-7H-pyrrolo[2,3-d]pyrimidine] | 0.0001 to 1 µM | < 10000 nM |
| COc1ccc(-c2[nH]c(C3(C)CCN(c4ncnc5[nH]c(-c6ccc(OCC(=O)O)cc6)cc45)CC3)nc2C)cc1F [P-3214, 2-[4-[4-[4-[5-(3-fluoro-4-methoxy-phenyl)-4-methyl-1H-imidazol-2-yl]-4-methyl-1-piperidyl]-7H-pyrrolo[2,3-d]pyrimidin-6-yl]phenoxy]acetic acid] | 0.0001 to 1 µM | < 10000 nM |
| Cc1nc(C2(C)CCN(c3ncnc4[nH]c(-c5ccc(OCC(=O)O)cc5)cc34)CC2)[nH]c1-c1ccc(C(F)F)cc1 [P-3240, 2-[4-[4-[4-[5-[4-(difluoromethyl)phenyl]-4-methyl-1H-imidazol-2-yl]-4-methyl-1-piperidyl]-7H-pyrrolo[2,3-d]pyrimidin-6-yl]phenoxy]acetic acid] | 0.0001 to 1 µM | < 10000 nM |
| Fc1ccc(-c2cc3c(N4CCC(c5nnc(-c6ccc(F)cc6)[nH]5)CC4)ncnc3[nH]2)cc1 [P-3206, 6-(4-fluorophenyl)-4-[4-[5-(4-fluorophenyl)-4H-1,2,4-triazol-3-yl]-1-piperidyl]-7H-pyrrolo[2,3-d]pyrimidine] | 1 to 10 µM | < 10000 nM |
| CCOc1ccc(-c2[nH]c(C3(C)CCN(c4ncnc5[nH]c(-c6ccc(C(=O)NC)nc6)cc45)CC3)nc2C)cc1C [P-3247, 5-[4-[4-[5-(4-ethoxy-3-methyl-phenyl)-4-methyl-1H-imidazol-2-yl]-4-methyl-1-piperidyl]-7H-pyrrolo[2,3-d]pyrimidin-6-yl]-N-methyl-pyridine-2-carb oxamide] | 0.0001 to 1 µM | < 10000 nM |
| Cc1nc(C2(C)CCN(c3ncnc4[nH]c(-c5ccc(C(N)=O)cc5)cc34)CC2)[nH]c1-c1cccc(OC(F)F)c1 [P-3231, 4-[4-[4-[5-[3-(difluoromethoxy)phenyl]-4-methyl-1H-imidazol-2-yl]-4-methyl-1-piperidyl]-7H-pyrrolo[2,3-d]pyrimidin-6-yl]benzamide] | 0.0001 to 1 µM | < 10000 nM |
| CCOc1ccc(-c2[nH]c(C3(C)CCN(c4ncnc5[nH]c(-c6ccc(OC)nc6)cc45)CC3)nc2C)cc1F [P-3209, 4-[4-[5-(4-ethoxy-3-fluoro-phenyl)-4-methyl-1H-imidazol-2-yl]-4-methyl-1-piperidyl]-6-(6-methoxy-3-pyridyl)-7H-pyrrolo[2,3-d]pyrimidine] | 0.0001 to 1 µM | < 10000 nM |
| CCOc1ccc(-c2[nH]c(C3(C)CCN(c4ncnc5[nH]c(-c6ccc(NS(C)(=O)=O)cc6)cc45)CC3)nc2C)cc1 [P-3230, N-[4-[4-[4-[5-(4-ethoxyphenyl)-4-methyl-1H-imidazol-2-yl]-4-methyl-1-piperidyl]-7H-pyrrolo[2,3-d]pyrimidin-6-yl]phenyl]methanesulfonamide] | 0.0001 to 1 µM | < 10000 nM |
